PubChem BioAssay AID248 (DTP/NCI, 2004)
Values joined by “and” are separate entries in the source; they are usually repeats but may differ in a detail not shown here. Equal values may be shown once. Inconclusive results and toxic doses are left out.

Tested on: L1210 leukemia ip in BDF1 mice, survival T/C
Experiment: NCI In Vivo Anticancer Drug Screen. Data for tumor model L1210 Leukemia (intraperitoneal) in B6D2F1 (BDF1) mice
Conditions: higher = longer survival
Summary of the method: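 Read-out is survival time, reported as the treated-group measurement over the vehicle-control measurement.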

[1] = endpoint: mean survival time, dose: 100.0 mg/kg/injection, schedule: Q01DX009 (ip), vehicle: saline with Tween-80
[2] = endpoint: mean survival time, dose: 200.0 mg/kg/injection, schedule: Q01DX009 (ip), vehicle: saline with Tween-80
[3] = endpoint: mean survival time, dose: 100.0 mg/kg/injection, schedule: Q04DX003 (ip), vehicle: Klucel (hydroxypropylcellulose) (HPC)
[4] = endpoint: mean survival time, dose: 200.0 mg/kg/injection, schedule: Q04DX003 (ip), vehicle: Klucel (hydroxypropylcellulose) (HPC)
[5] = endpoint: mean survival time, dose: 400.0 mg/kg/injection, schedule: Q04DX003 (ip), vehicle: Klucel (hydroxypropylcellulose) (HPC)
[6] = endpoint: mean survival time, dose: 100.0 mg/kg/injection, schedule: Q01DX001 (ip), vehicle: carboxymethylcellulose (CMC)
[7] = endpoint: mean survival time, dose: 200.0 mg/kg/injection, schedule: Q01DX001 (ip), vehicle: carboxymethylcellulose (CMC)

For NC(=O)OCc1c(O)c2c(c(O)c1COC(N)=O)C(=O)C=CC2=O, the T/C (endpoint: mean survival time, dose: 6.25 mg/kg/injection, schedule: Q01DX009 (ip), vehicle: water) was 94 % of control, the T/C (endpoint: mean survival time, dose: 12.5 mg/kg/injection, schedule: Q01DX009 (ip), vehicle: water) was 92 % of control and the T/C (endpoint: mean survival time, dose: 25.0 mg/kg/injection, schedule: Q01DX009 (ip), vehicle: water) was 99 % of control. The T/C (endpoint: mean survival time, dose: 50.0 mg/kg/injection, schedule: Q01DX009 (ip), vehicle: water) was 90 % of control and the T/C (endpoint: mean survival time, dose: 100.0 mg/kg/injection, schedule: Q01DX009 (ip), vehicle: water) was 95 % of control.
O=C(COc1ccc(Cl)cc1)c1ccccc1 was tested, and the T/C [1] was 99 % of control, the T/C [2] was 87 % of control and the T/C (endpoint: mean survival time, dose: 400.0 mg/kg/injection, schedule: Q01DX009 (ip), vehicle: saline with Tween-80) was 100 % of control.
With S=c1nc[nH]c2c1ncn2C1CCCCC1 the T/C (endpoint: mean survival time, dose: 47.0 mg/kg/injection, schedule: Q01DX Z (ip), vehicle: carboxymethylcellulose (CMC)) was 98 % of control, the T/C (endpoint: mean survival time, dose: 94.0 mg/kg/injection, schedule: Q01DX Z (ip), vehicle: carboxymethylcellulose (CMC)) was 98 % of control and the T/C (endpoint: mean survival time, dose: 94.0 mg/kg/injection, schedule: Q01DX Z (oral), vehicle: carboxymethylcellulose (CMC)) was 108 % of control. The T/C (endpoint: mean survival time, dose: 188.0 mg/kg/injection, schedule: Q01DX Z (ip), vehicle: carboxymethylcellulose (CMC)) was 106 % of control, the T/C (endpoint: mean survival time, dose: 188.0 mg/kg/injection, schedule: Q01DX Z (oral), vehicle: carboxymethylcellulose (CMC)) was 98 % of control and the T/C (endpoint: mean survival time, dose: 376.0 mg/kg/injection, schedule: Q01DX Z (ip), vehicle: carboxymethylcellulose (CMC)) was 102 % of control. For the same molecule, the T/C (endpoint: mean survival time, dose: 376.0 mg/kg/injection, schedule: Q01DX Z (oral), vehicle: carboxymethylcellulose (CMC)) was 110 % of control and the T/C (endpoint: mean survival time, dose: 752.0 mg/kg/injection, schedule: Q01DX Z (oral), vehicle: carboxymethylcellulose (CMC)) was 106 % of control.
With COC(COC(N)=O)C1=C(N2CC2)C(=O)C(C)=C(N2CC2)C1=O (stereo unspecified) the T/C (endpoint: mean survival time, dose: 0.03 mg/kg/injection, schedule: Q01DX Z (ip), vehicle: saline) was 107 % of control, the T/C (endpoint: mean survival time, dose: 0.06 mg/kg/injection, schedule: Q01DX Z (ip), vehicle: saline) was 115 % of control and the T/C (endpoint: mean survival time, dose: 0.12 mg/kg/injection, schedule: Q01DX009 (ip), vehicle: Klucel (hydroxypropylcellulose) (HPC)) was 158 % of control. The T/C (endpoint: mean survival time, dose: 0.12 mg/kg/injection, schedule: Q01DX Z (ip), vehicle: saline) was 115 % of control, the T/C (endpoint: mean survival time, dose: 0.25 mg/kg/injection, schedule: Q01DX009 (ip), vehicle: Klucel (hydroxypropylcellulose) (HPC)) was 113 % of control and the T/C (endpoint: mean survival time, dose: 0.25 mg/kg/injection, schedule: Q01DX Z (ip), vehicle: saline) was 159 % of control. The T/C (endpoint: mean survival time, dose: 0.5 mg/kg/injection, schedule: Q01DX009 (ip), vehicle: saline) was 207 % of control, the T/C (endpoint: mean survival time, dose: 0.5 mg/kg/injection, schedule: Q01DX Z (ip), vehicle: saline) was 157 % of control and the T/C (endpoint: mean survival time, dose: 0.5 mg/kg/injection, schedule: Q04DX003 (ip), vehicle: Klucel (hydroxypropylcellulose) (HPC)) was 194 % of control. For the same molecule, the T/C (endpoint: mean survival time, dose: 0.5 mg/kg/injection, schedule: Q04DX003 (ip), vehicle: saline) was 172 % of control, the T/C (endpoint: mean survival time, dose: 0.5 mg/kg/injection, schedule: Q08DX002 (ip), vehicle: saline) was 160 % of control and the T/C (endpoint: mean survival time, dose: 1.0 mg/kg/injection, schedule: Q01DX001 (ip), vehicle: saline with Tween-80) was 166 % of control. For the same molecule, the T/C (endpoint: mean survival time, dose: 1.0 mg/kg/injection, schedule: Q01DX001 (ip), vehicle: saline) was 171 % of control, the T/C (endpoint: mean survival time, dose: 1.0 mg/kg/injection, schedule: Q01DX009 (ip), vehicle: saline) was 201 % of control and the T/C (endpoint: mean survival time, dose: 1.0 mg/kg/injection, schedule: Q01DX Z (ip), vehicle: saline) was 90 % of control. For the same molecule, the T/C (endpoint: mean survival time, dose: 1.0 mg/kg/injection, schedule: Q04DX003 (ip), vehicle: saline) was 188 % of control, the T/C (endpoint: mean survival time, dose: 1.0 mg/kg/injection, schedule: Q08DX002 (ip), vehicle: saline) was 233 % of control and the T/C (endpoint: mean survival time, dose: 2.0 mg/kg/injection, schedule: Q01DX001 (ip), vehicle: saline with Tween-80) was 288 % of control. For the same molecule, the T/C (endpoint: mean survival time, dose: 2.0 mg/kg/injection, schedule: Q01DX001 (ip), vehicle: saline) was 360 % of control, the T/C (endpoint: mean survival time, dose: 2.0 mg/kg/injection, schedule: Q01DX009 (ip), vehicle: Klucel (hydroxypropylcellulose) (HPC)) was 92 % of control and the T/C (endpoint: mean survival time, dose: 2.0 mg/kg/injection, schedule: Q04DX003 (ip), vehicle: Klucel (hydroxypropylcellulose) (HPC)) was 98 % of control. For the same molecule, the T/C (endpoint: mean survival time, dose: 2.0 mg/kg/injection, schedule: Q04DX003 (ip), vehicle: saline) was 105 % of control, the T/C (endpoint: mean survival time, dose: 2.0 mg/kg/injection, schedule: Q08DX002 (ip), vehicle: saline) was 159 % of control and the T/C (endpoint: mean survival time, dose: 4.0 mg/kg/injection, schedule: Q01DX001 (ip), vehicle: saline with Tween-80) was 90 % of control. The T/C (endpoint: median survival time, dose: 0.5 mg/kg/injection, schedule: Q01DX001 (ip), vehicle: saline) was 100 % of control, the T/C (endpoint: median survival time, dose: 1.0 mg/kg/injection, schedule: Q01DX001 (ip), vehicle: saline) was 109 % of control and the T/C (endpoint: median survival time, dose: 2.0 mg/kg/injection, schedule: Q01DX001 (ip), vehicle: saline) was 114 % of control.
COC1OC2COC(c3ccccc3)OC2C(O)C1NC(=O)c1ccccc1 (stereo unspecified) was tested, and the T/C [3] was 110 % of control, the T/C [4] was 94 % of control and the T/C [5] was 111 % of control.
Cc1c(Cl)cccc1NC(=O)Oc1ccc(-c2ccccc2)cc1 was tested, and the T/C (endpoint: mean survival time, dose: 50.0 mg/kg/injection, schedule: Q04DX003 (ip), vehicle: saline with Tween-80) was 97 % of control, the T/C [1] was 95 % of control and 97 % of control and the T/C (endpoint: mean survival time, dose: 100.0 mg/kg/injection, schedule: Q04DX002 (ip), vehicle: saline with Tween-80) was 93 % of control and 91 % of control. For the same molecule, the T/C (endpoint: mean survival time, dose: 100.0 mg/kg/injection, schedule: Q04DX003 (ip), vehicle: saline with Tween-80) was 101 % of control, the T/C [2] was 104 % of control and 89 % of control and the T/C (endpoint: mean survival time, dose: 200.0 mg/kg/injection, schedule: Q04DX002 (ip), vehicle: saline with Tween-80) was 96 % of control. For the same molecule, the T/C (endpoint: mean survival time, dose: 200.0 mg/kg/injection, schedule: Q04DX003 (ip), vehicle: saline with Tween-80) was 100 % of control and the T/C (endpoint: mean survival time, dose: 400.0 mg/kg/injection, schedule: Q04DX002 (ip), vehicle: saline with Tween-80) was 96 % of control and 103 % of control.
For Cc1ccc(NC2=NCCO2)cc1, the T/C (endpoint: mean survival time, dose: 50.0 mg/kg/injection, schedule: Q01DX001 (ip), vehicle: carboxymethylcellulose (CMC)) was 104 % of control, the T/C [6] was 96 % of control and the T/C [7] was 98 % of control.
With O=C(O)c1ccccc1C(=O)NCc1ccc(Cl)cc1Cl the T/C (endpoint: mean survival time, dose: 100.0 mg/kg/injection, schedule: Q04DX002 (ip), vehicle: Klucel (hydroxypropylcellulose) (HPC)) was 88 % of control, the T/C (endpoint: mean survival time, dose: 200.0 mg/kg/injection, schedule: Q04DX002 (ip), vehicle: Klucel (hydroxypropylcellulose) (HPC)) was 100 % of control and the T/C (endpoint: mean survival time, dose: 400.0 mg/kg/injection, schedule: Q04DX002 (ip), vehicle: Klucel (hydroxypropylcellulose) (HPC)) was 98 % of control.
For C[Si](C)(C#CC1(O)CCCCC1)C(Cl)Cl, the T/C [3] was 102 % of control, the T/C [4] was 101 % of control and the T/C [5] was 109 % of control.
With C#CC(=O)C(CC)CCCC (stereo unspecified) the T/C (endpoint: mean survival time, dose: 6.25 mg/kg/injection, schedule: Q01DX009 (ip), vehicle: saline with Tween-80) was 115 % of control and the T/C (endpoint: mean survival time, dose: 12.5 mg/kg/injection, schedule: Q01DX009 (ip), vehicle: saline with Tween-80) was 117 % of control.
For O=S(=O)(CCCCCl)Cc1ccccc1, the T/C (endpoint: mean survival time, dose: 100.0 mg/kg/injection, schedule: Q01DX001 (ip), vehicle: saline) was 101 % of control, the T/C (endpoint: mean survival time, dose: 100.0 mg/kg/injection, schedule: Q01DX009 (ip), vehicle: saline) was 110 % of control and the T/C (endpoint: mean survival time, dose: 100.0 mg/kg/injection, schedule: Q04DX003 (ip), vehicle: saline) was 104 % of control. For the same molecule, the T/C (endpoint: mean survival time, dose: 200.0 mg/kg/injection, schedule: Q01DX001 (ip), vehicle: saline) was 96 % of control, the T/C (endpoint: mean survival time, dose: 200.0 mg/kg/injection, schedule: Q01DX009 (ip), vehicle: saline) was 94 % of control and the T/C (endpoint: mean survival time, dose: 200.0 mg/kg/injection, schedule: Q04DX003 (ip), vehicle: saline) was 104 % of control. The T/C (endpoint: mean survival time, dose: 400.0 mg/kg/injection, schedule: Q01DX001 (ip), vehicle: saline) was 93 % of control, the T/C (endpoint: mean survival time, dose: 400.0 mg/kg/injection, schedule: Q01DX009 (ip), vehicle: saline) was 103 % of control and the T/C (endpoint: mean survival time, dose: 400.0 mg/kg/injection, schedule: Q04DX003 (ip), vehicle: saline) was 93 % of control.
CC(=O)Nc1ccc(C=O)s1 was tested, and the T/C [6] was 97 % of control, the T/C [7] was 94 % of control and the T/C (endpoint: mean survival time, dose: 400.0 mg/kg/injection, schedule: Q01DX001 (ip), vehicle: carboxymethylcellulose (CMC)) was 103 % of control.
For O=C1OC(=O)c2cccc3cccc1c23, the T/C (endpoint: mean survival time, dose: 50.0 mg/kg/injection, schedule: Q01DX001 (ip), vehicle: Klucel (hydroxypropylcellulose) (HPC)) was 98 % of control, the T/C (endpoint: mean survival time, dose: 100.0 mg/kg/injection, schedule: Q01DX001 (ip), vehicle: Klucel (hydroxypropylcellulose) (HPC)) was 97 % of control and the T/C (endpoint: mean survival time, dose: 200.0 mg/kg/injection, schedule: Q01DX001 (ip), vehicle: Klucel (hydroxypropylcellulose) (HPC)) was 94 % of control. For the same molecule, the T/C (endpoint: mean survival time, dose: 400.0 mg/kg/injection, schedule: Q01DX001 (ip), vehicle: Klucel (hydroxypropylcellulose) (HPC)) was 111 % of control.
